The structures appear in SMILES notation. Like-named read-outs stand apart in the source and are kept apart here.

From patent US20100069340A1, “PHARMACEUTICAL COMPOSITIONS OF AN SRC KINASE INHIBITOR AND AN AROMATASE INHIBITOR” (Wyeth, priority 2008, published 2010) come the findings set out here.

The nature of series [1]: clinical. The settings on record: for AUC: Mean steady state AUC; for Cmax: Mean steady state Cmax. The procedure: A phase 1 single-agent trial of bosutinib to determine the safety, tolerability, and pharmacokinetics of orally administered bosutinib in subjects with advanced-stage, previously treated, solid tumors is currently ongoing. […] Subjects are continued on bosutinib until disease progression, or the occurrence of a significant toxicity considered possibly related to bosutinib. Dosing was started at 50 mg per day. Subsequent dose levels studied have included 100 mg, 200 mg, 300 mg, 400 mg, 500 mg and 600 mg. Safety is assessed for 21 days in 3 to 6 subjects before beginning the cohort at the next incremental dose.

The test system of series [2] is BT474. Nature of the series: Cell proliferation assay (CellTiter Glo), BT474. In kind it is cell-based. The settings on record: Homo sapiens, BT-474, 168 h, 7 Day assay, charcoal stripped serum, no phenol red. The procedure:
(§1) Cell lines were obtained from ATCC. Estrogen was obtained from SIGMA, 4-hydroxytamoxifen was obtained from SIGMA, Bosutinib was used for these studies. Charcoal-stripped serum and phenol red-free medium was obtained from Invitrogen. CellTiter Glo was obtained from Promega.
Cell cultures. Proliferation assays with cells in complete fetal calf serum were performed with medium containing phenol red. For all assays examining estrogen-dependence, cells were cultured in phenol red-free medium; DMEM/F12 (MCF7), RPMI1640 (MDA-MB-361, T47D) MEM (BT20, MDA-MB-231) McCoys5A modified (SKBR3), Leibowitz' L15 medium supplemented with 10 ng/mL insulin (MDA-MB-435 and MDA-MB-468) with 10% fetal bovine serum supplemented with glutamine and gentamicin. For proliferation assays, trypsinized cells were subjected to three cycles of centrifugation and resuspension in phenol red-free medium supplemented with charcoal stripped medium (5% final), glutamine and Pen/Strep. Cells were plated on day 0, with or without estrogen (10 nM final concentration). On day 1, 4-hydroxytamoxifen and SKI-606 or DMSO were added as a serial dilution. Cells were incubated for 7 days, after which CellTiter Glo (Promega) was added as recommended by the manufacturer. After mixing and two hours incubation on the bench, plates were read on an Envision reader. […]
On the technique in general: Cellular ATP, detected with luciferase, serves as a proxy for viable cell number.

Series [3] relates to MDA-MB-361. Nature of the series: Cell proliferation assay (CellTiter Glo), MDA-MB-361. It is filed as cell-based. The settings on record: for IC50: Homo sapiens. On the procedure: as §1
(§2) Cell cultures. Proliferation assays with cells in complete fetal calf serum were performed with medium containing phenol red. For all assays examining estrogen-dependence, cells were cultured in phenol red-free medium; DMEM/F12 (MCF7), RPMI1640 (MDA-MB-361, T47D) MEM (BT20, MDA-MB-231) McCoys5A modified (SKBR3), Leibowitz' L15 medium supplemented with 10 ng/mL insulin (MDA-MB-435 and MDA-MB-468) with 10% fetal bovine serum supplemented with glutamine and gentamicin. For proliferation assays, trypsinized cells were subjected to three cycles of centrifugation and resuspension in phenol red-free medium supplemented with charcoal stripped medium (5% final), glutamine and Pen/Strep. Cells were plated on day 0, with or without estrogen (10 nM final concentration). On day 1, 4-hydroxytamoxifen and SKI-606 or DMSO were added as a serial dilution. Cells were incubated for 7 days, after which CellTiter Glo (Promega) was added as recommended by the manufacturer. After mixing and two hours incubation on the bench, plates were read on an Envision reader. […] The 10 uM data point was dropped for these two lines since there was a clear plateau prior to the sharp drop in luminescence observed at 10 uM compound. The IC50 was calculated using a floating minima corresponding to the lowest luminescence value at 5 uM.
Cell proliferation assays were performed in two formats; a three day proliferation assay in fully supplemented medium with phenol red, and a 7 day proliferation assay in phenol red free medium supplemented with charcoal-stripped medium. […] ER positive T47D cells were slightly more sensitive to SKI-606 in the presence of estrogen. BT20 cells were equally sensitive to SKI-606 in stripped serum medium, regardless of whether estrogen was present.
Proliferation data for SKI-606 in various breast tumor lines in complete medium (10% FCS) and charcoal stripped serum with no phenol red (no E2, E2) with and without 10 nM estrogen. The complete medium data were obtained in 3-day assays, while stripped serum assays were extended for 7 days with one change of medium at day 5. The IC50 values for the BT20 line was calculated using the “plateau” cell number evident at 5 μM SKI-606.

The test system of series [4] is MDA-MB-468 (ER neg). Nature of the series: Cell proliferation assay, MDA-MB-468. In kind it is cell-based. The settings on record: Homo sapiens, MDA-MB-468, 72 h; 3 Day assay, complete medium (10% FCS). On the procedure: as §1
as §2, with “Cells were incubated for 7 days, after which CellTiter Glo (Promega) was added as recommended by the manufacturer.” left out, “The IC50 was calculated using a floating minima corresponding to the lowest luminescence value at 5 uM.” left out

What is called Tmax is the time at which the peak concentration occurs. The half-life is the time in which the quantity being followed falls by half. Read a high half-life as slow decline. As a reminder, the AUC is concentration integrated over time. A low value points to low exposure. One may read the Cmax as the highest concentration seen after dosing. One may read the IC50 as the midpoint of a concentration-inhibition curve. In the case of `COc1cc(Nc2c(C#N)cnc3cc(OCCCN4CCN(C)CC4)c(OC)cc23)c(Cl)cc1Cl` [bosutinib], in series [1] (human, in vivo, po), the “Mean steady state AUC” value is reported as 3660 ng·h/mL, the “Mean steady state Cmax” value is reported as 200 ng/mL, the “Multiple-dose exposure versus single-dose exposure” value is 2-3 fold and the Tmax is 3 to 6 h. In series [1] (human, in vivo, po), this molecule yielded a half-life of 22 to 25 h, an exposure (AUC) of 2580 ng·h/mL and a Cmax of 157 ng/mL. In series [1] (human, in vivo, po, 600 mg), this molecule had an AUC of 3360 ng·h/mL and a Cmax of 208 ng/mL. Also, the “Dose limiting toxicities observed” value in series [1] (in vivo, po) is “nausea, vomiting, diarrhea, and rash”. Moreover, the “protocol-defined maximum tolerable dose” value in series [1] (subjects with multiple-relapsed solid tumors, oral) was determined as 500 mg daily. Besides, the IC50 in series [2] (10 nM estrogen, read-out: IC50 (uM) E2) is 2.32 µM. For the same molecule, the IC50 in series [2] (without estrogen, read-out: IC50 (uM) no E2) was found to be 2.22 µM. Also, in series [3] (10 uM SKI-606, MDA-MB-361 cells), the “toxicity at maximal concentration” value was “some toxicity was seen”. Moreover, the IC50 in series [3] (MDA-MB-361, 72 h, 3 Day assay, complete medium (10% FCS), read-out: IC50 (uM) 10% FCS) is 2.5 µM. Besides, the IC50 in series [3] (MDA-MB-361, 168 h, 7 Day assay, charcoal stripped serum, no phenol red, 10 nM estrogen, read-out: IC50 (uM) E2) was determined as 0.38 µM. The IC50 in series [3] (MDA-MB-361, 168 h, 7 Day assay, charcoal stripped serum, no phenol red, without estrogen, read-out: IC50 (uM) no E2) was 0.74 µM. Also, the “effect on estrogen-dependent and estrogen-independent growth” value in series [3] (MDA-MB-361) was “inhibited estrogen-dependent and estrogen-independent growth”. Also, the IC50 in series [4] turned out to be 5 µM.
